Reference: PubChem BioAssay AID328 (DTP/NCI, 2004)
Several values for one entry are separate records, joined by “and”; a condition that tells them apart may be missing. Equal entries are not always repeated. Toxic doses and inconclusive results are not listed. How the source made its calls: active means survival T/C of 150% or more; inactive means T/C below 125% in these data.

Test system: BDF1 mice, P388 leukemia ip, median survival T/C
Assay: NCI In Vivo Anticancer Drug Screen. Data for tumor model P388 Leukemia (intraperitoneal) in B6D2F1 (BDF1) mice
Settings: endpoint: median survival time, higher = longer survival
In short: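 T/C = treated-group survival ÷ vehicle-control survival; tumour transplanted into mice before dosing.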

[1] = dose: 6.25 mg/kg/injection, schedule: Q01DX009 (ip), vehicle: saline
[2] = dose: 25.0 mg/kg/injection, schedule: Q01DX001 (ip), vehicle: saline
[3] = dose: 50.0 mg/kg/injection, schedule: Q01DX001 (ip), vehicle: saline
[4] = dose: 100.0 mg/kg/injection, schedule: Q01DX009 (ip), vehicle: saline with Tween-80
[5] = dose: 200.0 mg/kg/injection, schedule: Q01DX009 (ip), vehicle: saline with Tween-80
[6] = dose: 1.56 mg/kg/injection, schedule: Q01DX009 (ip), vehicle: saline
[7] = dose: 12.5 mg/kg/injection, schedule: Q01DX009 (ip), vehicle: Klucel (hydroxypropylcellulose) (HPC)
[8] = dose: 50.0 mg/kg/injection, schedule: Q01DX009 (ip), vehicle: Klucel (hydroxypropylcellulose) (HPC)
[9] = dose: 50.0 mg/kg/injection, schedule: Q04DX003 (ip), vehicle: Klucel (hydroxypropylcellulose) (HPC)
[10] = dose: 100.0 mg/kg/injection, schedule: Q04DX003 (ip), vehicle: Klucel (hydroxypropylcellulose) (HPC)
[11] = dose: 12.5 mg/kg/injection, schedule: Q01DX009 (ip), vehicle: saline with Tween-80
[12] = dose: 25.0 mg/kg/injection, schedule: Q01DX009 (ip), vehicle: saline with Tween-80
[13] = dose: 50.0 mg/kg/injection, schedule: Q01DX009 (ip), vehicle: saline with Tween-80
[14] = dose: 100.0 mg/kg/injection, schedule: Q01DX009 (ip), vehicle: Klucel (hydroxypropylcellulose) (HPC)
[15] = dose: 200.0 mg/kg/injection, schedule: Q01DX009 (ip), vehicle: Klucel (hydroxypropylcellulose) (HPC)
[16] = dose: 200.0 mg/kg/injection, schedule: Q04DX003 (ip), vehicle: Klucel (hydroxypropylcellulose) (HPC)

Measured: T/C

c1ccc2c3csc4ccccc4c-3nc2c1
inactive: dose: 1.56 mg/kg/injection, schedule: Q04DX003 (ip), vehicle: Klucel (hydroxypropylcellulose) (HPC) 95 % of control | dose: 3.12 mg/kg/injection, schedule: Q04DX003 (ip), vehicle: Klucel (hydroxypropylcellulose) (HPC) 95 % of control | dose: 5.7 mg/kg/injection, schedule: Q01DX009 (ip), vehicle: Klucel (hydroxypropylcellulose) (HPC) 92 % of control and 113 % of control | dose: 6.25 mg/kg/injection, schedule: Q04DX003 (ip), vehicle: Klucel (hydroxypropylcellulose) (HPC) 104 % of control | dose: 8.75 mg/kg/injection, schedule: Q01DX009 (ip), vehicle: Klucel (hydroxypropylcellulose) (HPC) 88 % of control and 118 % of control | dose: 12.5 mg/kg/injection, schedule: Q04DX003 (ip), vehicle: Klucel (hydroxypropylcellulose) (HPC) 104 % of control | dose: 13.0 mg/kg/injection, schedule: Q01DX009 (ip), vehicle: Klucel (hydroxypropylcellulose) (HPC) 92 % of control and 113 % of control

[Cr+6].[NH2-].[NH2-].[NH2-].[NH2-].[NH2-].[NH2-]
inactive: dose: 4.1 mg/kg/injection, schedule: Q04DX003 (ip), vehicle: saline 116 % of control | dose: 5.4 mg/kg/injection, schedule: Q04DX003 (ip), vehicle: saline 109 % of control | [1] 120 % of control | dose: 8.2 mg/kg/injection, schedule: Q01DX009 (ip), vehicle: saline 122 % of control | dose: 8.2 mg/kg/injection, schedule: Q04DX003 (ip), vehicle: saline 109 % of control | [2] 112 % of control | [3] 112 % of control

O=C(Nc1cc(Cl)ccc1Cl)c1ccc(C(=O)Nc2cc(Cl)ccc2Cl)cc1
inactive: [4] 94 % of control | [5] 91 % of control | dose: 400.0 mg/kg/injection, schedule: Q01DX009 (ip), vehicle: saline with Tween-80 110 % of control

Cc1ccc2c3csc4ccccc4c-3nc2c1
inactive: [6] 113 % of control | dose: 3.12 mg/kg/injection, schedule: Q01DX009 (ip), vehicle: saline 113 % of control | [1] 113 % of control | dose: 12.5 mg/kg/injection, schedule: Q01DX009 (ip), vehicle: saline 100 % of control and 111 % of control | dose: 18.0 mg/kg/injection, schedule: Q01DX009 (ip), vehicle: saline 118 % of control | dose: 25.0 mg/kg/injection, schedule: Q01DX009 (ip), vehicle: saline 104 % of control

Cc1c[nH]c(=O)[nH]c1=O
inactive: dose: 390.0 mg/kg/injection, schedule: Q04DX003 (ip), vehicle: saline with Tween-80 98 % of control | dose: 390.0 mg/kg/injection, schedule: Q## X003 (ip), vehicle: saline with Tween-80 98 % of control | dose: 520.0 mg/kg/injection, schedule: Q04DX003 (ip), vehicle: saline with Tween-80 93 % of control | dose: 520.0 mg/kg/injection, schedule: Q## X003 (ip), vehicle: saline with Tween-80 93 % of control

COc1ccc(C(C#N)N2CCCCC2)cc1 (stereo not given)
inactive: [7] 115 % of control | dose: 25.0 mg/kg/injection, schedule: Q01DX009 (ip), vehicle: Klucel (hydroxypropylcellulose) (HPC) 100 % of control | dose: 25.0 mg/kg/injection, schedule: Q04DX003 (ip), vehicle: Klucel (hydroxypropylcellulose) (HPC) 113 % of control | [8] 100 % of control | [9] 100 % of control | [10] 100 % of control and 104 % of control

CCOC(=O)CC1NCCC2C1CCC(OC)C2OC (stereo not given)
inactive: [11] 95 % of control | [12] 100 % of control | [13] 100 % of control | dose: 50.0 mg/kg/injection, schedule: Q04DX003 (ip), vehicle: other 110 % of control | dose: 100.0 mg/kg/injection, schedule: Q01DX009 (ip), vehicle: other 105 % of control | dose: 100.0 mg/kg/injection, schedule: Q04DX003 (ip), vehicle: other 100 % of control | dose: 200.0 mg/kg/injection, schedule: Q01DX009 (ip), vehicle: other 110 % of control | dose: 200.0 mg/kg/injection, schedule: Q04DX003 (ip), vehicle: other 100 % of control

C#CCOC(=O)NC1CCCCC1
inactive: [8] 100 % of control | [9] 100 % of control | [14] 100 % of control | [10] 95 % of control | [15] 100 % of control | [16] 109 % of control

Clc1ncnc2c1ncn2C1CCCO1 (stereo not given)
inactive: dose: 100.0 mg/kg/injection, schedule: Q04DX003 (ip), vehicle: saline 104 % of control | dose: 200.0 mg/kg/injection, schedule: Q04DX003 (ip), vehicle: saline 104 % of control

CC(=O)CC(c1ccc2c(c1)OCO2)c1c(O)c2ccccc2oc1=O (stereo not given)
inactive: dose: 0.39 mg/kg/injection, schedule: Q01DX009 (ip), vehicle: saline 88 % of control | dose: 0.78 mg/kg/injection, schedule: Q01DX009 (ip), vehicle: saline 106 % of control | dose: 0.78 mg/kg/injection, schedule: Q04DX003 (ip), vehicle: saline 89 % of control | [6] 106 % of control | dose: 1.56 mg/kg/injection, schedule: Q04DX003 (ip), vehicle: saline 98 % of control | dose: 3.12 mg/kg/injection, schedule: Q04DX003 (ip), vehicle: saline 89 % of control | dose: 6.25 mg/kg/injection, schedule: Q04DX003 (ip), vehicle: saline 89 % of control | dose: 12.5 mg/kg/injection, schedule: Q04DX003 (ip), vehicle: saline 102 % of control

Nc1nc(N)c2cc(NCc3ccc(Br)cc3)ccc2n1
inactive: dose: 3.12 mg/kg/injection, schedule: Q01DX009 (ip), vehicle: Klucel (hydroxypropylcellulose) (HPC) 105 % of control | dose: 6.25 mg/kg/injection, schedule: Q01DX009 (ip), vehicle: Klucel (hydroxypropylcellulose) (HPC) 100 % of control | [7] 95 % of control

O=C(CC(c1ccccc1)c1ccccc1)c1ccccc1
inactive: [14] 108 % of control | [10] 120 % of control | [15] 108 % of control | [16] 110 % of control | dose: 400.0 mg/kg/injection, schedule: Q01DX009 (ip), vehicle: Klucel (hydroxypropylcellulose) (HPC) 91 % of control | dose: 400.0 mg/kg/injection, schedule: Q04DX003 (ip), vehicle: Klucel (hydroxypropylcellulose) (HPC) 120 % of control

c1ccc(C(Nc2nccs2)Nc2nccs2)cc1
inactive: [11] 112 % of control | [12] 108 % of control | [13] 96 % of control and 108 % of control

O=C(O)c1ccccc1NSc1ccccc1[N+](=O)[O-]
inactive: [13] 97 % of control | [4] 109 % of control | [5] 111 % of control

CCOC(=O)Cc1csc2nc(-c3ccccc3)nn12
inactive: [13] 106 % of control | [4] 108 % of control | [5] 115 % of control

Nc1nc(SN=Nc2ccc(S(N)(=O)=O)cc2)c2[nH]cnc2n1
inactive: dose: 3.75 mg/kg/injection, schedule: Q01DX009 (ip), vehicle: saline with Tween-80 120 % of control | dose: 7.5 mg/kg/injection, schedule: Q01DX009 (ip), vehicle: saline with Tween-80 104 % of control | dose: 15.0 mg/kg/injection, schedule: Q01DX009 (ip), vehicle: saline with Tween-80 91 % of control

O=C(O)CCI
inactive: dose: 25.0 mg/kg/injection, schedule: Q04DX003 (ip), vehicle: saline with Tween-80 113 % of control | dose: 50.0 mg/kg/injection, schedule: Q01DX009 (ip), vehicle: saline 100 % of control | dose: 50.0 mg/kg/injection, schedule: Q04DX003 (ip), vehicle: saline with Tween-80 100 % of control | dose: 100.0 mg/kg/injection, schedule: Q01DX001 (ip), vehicle: saline 104 % of control | dose: 100.0 mg/kg/injection, schedule: Q01DX009 (ip), vehicle: saline 100 % of control | dose: 100.0 mg/kg/injection, schedule: Q04DX003 (ip), vehicle: saline with Tween-80 92 % of control and 95 % of control | dose: 200.0 mg/kg/injection, schedule: Q01DX001 (ip), vehicle: saline 104 % of control | dose: 200.0 mg/kg/injection, schedule: Q01DX009 (ip), vehicle: saline 91 % of control

OCC#CCO
inactive: dose: 12.0 mg/kg/injection, schedule: Q01DX001 (ip), vehicle: saline 95 % of control | [2] 113 % of control | [3] 109 % of control

COc1cc(N/C(N)=N\C(N)=NC(C)C)cc(OC)c1OC
inactive: dose: 100.0 mg/kg/injection, schedule: Q04DX003 (ip), vehicle: saline sonified 95 % of control
